Assay results as given in patent US12274687B2, “Methods for treating ascites” (Martin Pharmaceuticals, Inc., priority 2021, dated 2025).
“Also recorded” adds a separate entry of the source.

Assays:
[1] = test system: cirrhotic subjects with RA; test: Open-label, single-arm clinical study of docarpamine on ascites formation (frequency of LVP, volume of ascitic fluid drained); type: in vivo, human
Description: An open-label, single-arm study in which each subject serves as his/her own control is conducted. The study assesses the effect of DCP treatment on ascites formation in cirrhotic subjects with RA, by examining the frequency of LVP and the volume of ascitic fluid drained. All subjects participate in a 90-day open-label treatment period. […] Ascites history (relevant medications, LVP dates, and volume of drained fluid) for the 90 days prior to treatment and the 90 days after treatment are collected and used for comparison with on-treatment frequency and volume. The study population consists of cirrhotic patients between 18 and 70 years of age, inclusive, with refractory ascites, subject to the following inclusion and exclusion criteria. • Patients 18 years to 70 years of age. • Documented cirrhosis of the liver. • Refractory ascites, defined as ascites not manageable with diuretics and diet restriction, managed with periodic large volume therapeutic paracentesis. • Patients must have therapeutic […] 3 days prior to enrollment and a documented minimum of 3 additional therapeutic […] 90 days prior to enrollment, with at least 1 every 30 days. • Outpatient, with expected survival of at least 6 months. • Willing and able to complete an informed consent form.

RA patients = conditions: small cohort of RA patients; cited from earlier work
patients with RA = conditions: cited from earlier work
[2] = administered orally; high rates of metabolism in gut / small intestine and liver; cited from earlier work
[3] = high dose 4500 mg per day (1500 mg 3 times per day), 90 days treatment, on average, vs 90 days prior to treatment

Structure (SMILES) | effects on LVP, ascites volume and renal markers at low dose ([1]; 750 mg 3 times per day (2250 mg per day), 90 days: effects not observed) | time during which patients do not require LVP ([1]; 4500 mg per day group, some patients / others) | other markers of improved renal function ([1]; 4500 mg per day, 90 days) | sodium excretion ([1]; 4500 mg per day, 90 days) | Renin and/or aldosterone levels ([1]; 4500 mg per day, many patients, in some cases to normal) | urinary output on treatment ([1]; 4500 mg per day, most patients, from 500-1000 ml before, printed '1500-2000 ml or more') | frequency of LVP over 90 days [1, 3] | volume of ascites removed over 90 days [1, 3] | frequency and volume of LVP once a patient stops treatment ([1]; off-treatment follow-up after 90 days at 4500 mg per day) | persistence of the decrease in LVP after stopping treatment ([1]; off-treatment follow-up, before beginning to increase again) | efficacy in refractory ascites (RA patients) | changes of blood urea nitrogen, creatinine, creatinine clearance, blood pressure, pulse rate, serum sodium, serum aldosterone and GFR (patients with RA) | effective renal plasma flow (patients with RA) | oral bioavailability [2]
CCOC(=O)Oc1ccc(CCNC(=O)[C@H](CCSC)NC(C)=O)cc1OC(=O)OCC [docarpamine] | only in the high dose | more than one month; also recorded: more than two months | respond positively | Increased | reduced | 1500 to 2000 mL | reduced by more than half | reduced by more than half | greater decreases | one or more months | effective | – | – | –
NCCc1ccc(O)c(O)c1 [dopamine] | – | – | – | – | – | – | – | – | – | – | – | no difference | Positive effects | not orally bioavailable
